Reference: patent US20250263496A1, “Neutrophil-Activating Therapy for the Treatment of Cancer” (The Board of Trustees of the Leland Stanford Junior …, priority 2024, published 2025)

How the values were obtained:
Format in all cases: in vivo, mouse
Details in all cases: agent given prior to neutrophil-activating therapy
B16 tumors [1] = assay: TUNEL staining of cell death in B16 tumors
Method: Tumors were dissected away from surrounding fat, fixed in 2% paraformaldehyde for 2 hours at 4° C., equilibrated in a 30% sucrose solution at 4° C., and embedded and frozen in O.C.T. Compound (Tissue-Tek). Slides were cut to […] and blocked with 1% BSA and 10% serum matched to the secondary antibody species. The following antibodies were used for immunofluorescence: PE anti-Ly6G (clone 1A8, BioLegend), DyLight 650 anti-gp75 (clone TA99, Bio X Cell, labeled using DyLight 650 NHS Ester (Thermo Scientific)), fluorescein anti-gp75 (clone TA99, Bio X Cell, labeled using NHS-Fluorescein (Thermo Scientific)), FITC anti-DNA/RNA damage (clone 15A3, recognizing 8-hydroxy-2′-deoxyguanosine/8-oxo-7,8-dihydroguanine/8-oxo-7,8-dihydroguanosine, Abcam), and AF647 anti-C3 (clone 11H9, Novus Biologicals). DAPI (Invitrogen) was stained at 1 μg/ml. FITC/fluorescein signal was amplified using AF488 anti-FITC (ThermoFisher Scientific), and PE was amplified using biotin anti-PE (clone PE001, BioLegend) followed by DyLight 594 streptavidin (BioLegend) or DyLight 649 streptavidin (BioLegend). Prior to use of biotinylated antibodies, endogenous biotin was blocked using the Avidin/Biotin Blocking Kit (Vector Laboratories). Prior to DNA/RNA damage staining, sections were permeabilized with 0.1% Triton X-100 in 0.1% sodium citrate. TUNEL (Terminal deoxynucleotidyl transferase dUTP nick end labeling) staining was performed using the In Situ Cell Death Detection Kit, TMR Red (Roche) according to the manufacturer's instructions. […] All parameters that were quantified were acquired with identical microscope settings and adjusted identically in Photoshop, and all adjustments were applied equally across the entire tumor. Quantification was performed in ImageJ, using the wand tool on the overlaid multichannel image to draw a border around the tumor and then measuring the percent area within that border with signal for the channel of the marker quantified.

neutrophils = assay: Flow cytometry of neutrophils in B16 tumors and blood
Method: Tumors were digested with collagenase IV and DNase I as described above. Following digestion, tissue was mashed through a […] cell strainer (Falcon), washed, red blood cells were lysed with ACK buffer for 1 minute, and cells were washed again prior to antibody staining. Blood was harvested into PBS plus 20 mM EDTA by cardiac puncture or retro-orbital bleed, lysed in ACK buffer for 5 minutes, and washed prior to antibody staining. Bone marrow was harvested by grinding the femur and tibia in a mortar and pestle and mashing through a […] strainer (Falcon), or by flushing femurs with a syringe and needle, then lysed in ACK buffer for 5 minutes and washed prior to antibody staining. Spleens were harvested by mashing through a […] cell strainer (Falcon), then lysed in ACK buffer for 5 minutes and washed prior to antibody staining.
Live cells were stained with antibodies on ice for 20 minutes in FACS buffer (HBSS 1% BSA 5 mM EDTA) with Brilliant Stain Buffer Plus (BD). Following staining, cells were washed twice in FACS buffer and resuspended in 1 μg/ml DAPI plus AccuCount Fluorescent Particles (Spherotech) for absolute count determination. In some experiments, live cells were stained with Live/Dead Fixable Blue Stain (Invitrogen) in HBSS on ice for 20 minutes prior to antibody staining, and DAPI was not used. […]

B16 tumors [2] = assay: Oxidative damage in B16 tumors (DNA/RNA oxidation, oxidized glutathione)
Method: Tumors were dissected away from surrounding fat, fixed in 2% paraformaldehyde for 2 hours at 4° C., equilibrated in a 30% sucrose solution at 4° C., and embedded and frozen in O.C.T. Compound (Tissue-Tek). Slides were cut to […] and blocked with 1% BSA and 10% serum matched to the secondary antibody species. […] All parameters that were quantified were acquired with identical microscope settings and adjusted identically in Photoshop, and all adjustments were applied equally across the entire tumor. Quantification was performed in ImageJ, using the wand tool on the overlaid multichannel image to draw a border around the tumor and then measuring the percent area within that border with signal for the channel of the marker quantified.
Determination of oxidized glutathione content. […] The percentage of oxidized glutathione was calculated from the reduced glutathione and total glutathione values determined by the kit.

Question: For `N#Cc1cc(-c2n[nH]c(-c3ccncc3)n2)ccn1` [topiroxostat], which “effect of agent on treatment-induced tumor cell death” value (B16 tumors [1]) is on record?
Answer: reduced cell death

Question: And the “effect of agent on treatment-induced neutrophil tumor infiltration” value (neutrophils)?
Answer: did not prevent neutrophil infiltration

Question: And the “effect of agent on oxidation in tumors” value (B16 tumors [2])?
Answer: prevented oxidation in tumors
